Test results taken from US10227290B2, “Glycosphingolipids for use in modulating immune responses” (The Regents of the University of California, priority 2012, dated 2019).

Target: T1, Mouse CD1d (mCD1d) tetramer / TCR of NKT cell hybridomas (Mus musculus, UniProt P11609)
T1 construct: purchased NIH Tetramer Core Facility
T1 sequence (P11609 19-297 limits assumed): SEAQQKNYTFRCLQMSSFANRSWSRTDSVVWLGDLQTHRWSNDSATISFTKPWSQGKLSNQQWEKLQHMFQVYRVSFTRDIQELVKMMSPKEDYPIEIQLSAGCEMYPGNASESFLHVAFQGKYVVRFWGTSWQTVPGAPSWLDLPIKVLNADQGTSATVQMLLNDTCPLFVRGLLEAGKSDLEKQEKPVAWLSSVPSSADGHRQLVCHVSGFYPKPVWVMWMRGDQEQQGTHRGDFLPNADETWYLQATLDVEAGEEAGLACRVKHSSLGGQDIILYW
T1 sequence (P01887 21-119 partner): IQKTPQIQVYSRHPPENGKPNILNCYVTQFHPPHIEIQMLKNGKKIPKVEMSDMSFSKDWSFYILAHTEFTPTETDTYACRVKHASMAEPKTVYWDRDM
Assay: Staining of NKT cell hybridomas with sphingolipid-loaded mCD1d tetramers (flow cytometry)
Assay type: binding
Settings: mCD1d tetramer loaded with the sphingolipid
Procedure: FIGS. 4A-4C illustrate that α-GalCerBf binds CD1d and activates murine NKT cells in vitro. FIG. 4A: NKT cell hybridomas (see Example 4) were stained with anti-CD3 antibodies, and empty mCD1d tetramers or CD1d tetramers were loaded with α-GalCerBf or KRN7000. Flow cytometry plots representative of three independent experiments are shown. FIG. 4B: Hybridomas were cultured with BMDCs (bone marrow-derived dendritic cells) pre-pulsed with LPS or LPS+α-GalCerBf in the presence of control Ig or anti-CD1d blocking antibodies. IL-2 secretion was measured in supernatants 16 hr later. Data are representative of three independent experiments. FIG. 4C: Liver mononuclear cells were cultured with splenocytes plus increasing amounts of α-GalCerBf in the presence or absence of anti-CD1d blocking antibodies. IFN-γ secretion was measured in supernatants on day 5. Data are representative of three independent experiments.
The reagents used in Examples 4 and 5 for the immunology studies were as follows. PBS-57 loaded mCDld tetramers, which were used for mouse experiments, and unloaded mCD1d monomers were obtained from the NIH Tetramer Core Facility. For loading, monomers were incubated with KRN7000 or α-GalCerBf diluted in DMSO at 6 fold molar excess at 37° C. for 3 hrs in the presence of pepstatin, leupeptin, EDTA and TWEEN 20. Samples were concentrated using a 30K microconcentrator. Monomers were tetramerized by incubation with streptavidin-conjugated allophycocyanin (APC) (Molecular Probes, Inc., Eugene, Oreg.) at a 1:1 ratio. Staining was performed at room temperature for 1 hr. […] Viability was determined by staining cells with LIVE/DEAD fixable Aqua stain (Invitrogen Life Technologies, Carlsbad, Calif.) per manufacturer's instructions. […]
Synthetic CD1d tetramers were loaded with each sphingolipid, KRN7000 and α-GalCerBf), and the capability of the sphingolipid/CD1d-tetramer complex (hereafter called ‘tetramer’) to stain three NKT-cell-derived hybridomas was determined (see, e.g., Brossay et al., J. Immunol. […]

SMILES: CCCCCCCCCCCCCCCCCCCCCCCCCC(=O)N[C@@H](CO[C@H]1O[C@H](CO)[C@H](O)[C@H](O)[C@H]1O)[C@H](O)[C@H](O)CCCCCCCCCCCCCC [KRN7000]
- MFI (Median Fluorescence Intensity) of tetramer staining (DN3A4-1.2 (1.2) hybridoma): 2151
- MFI (Median Fluorescence Intensity) of tetramer staining (DN3A4-1.4 (1.4) hybridoma): 683
- MFI (Median Fluorescence Intensity) of tetramer staining (N38-2C12 (2C12) hybridoma): 8932
